Laboratory results reported in patent US20230295087A1, “AGONISTS OF ROR GAMMAt” (BRISTOL-MYERS SQUIBB COMPANY, priority 2019, published 2023).

Molecular target: T1, human RORgT (Homo sapiens, UniProt P51449)
T1 construct: expressed in transfected cells
T1 sequence (P51449 267-516): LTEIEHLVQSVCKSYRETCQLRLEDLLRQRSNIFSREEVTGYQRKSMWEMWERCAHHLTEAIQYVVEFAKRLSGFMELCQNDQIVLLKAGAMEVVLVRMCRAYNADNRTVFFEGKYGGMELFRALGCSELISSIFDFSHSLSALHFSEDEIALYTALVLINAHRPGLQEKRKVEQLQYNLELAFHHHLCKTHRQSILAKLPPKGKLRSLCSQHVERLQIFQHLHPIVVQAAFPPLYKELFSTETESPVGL
Test: RORgT Gal4 Luciferase Reporter Gene Assay
Type: cell-based
Settings: engineered Jurkat cells overexpressing RORgT (LBD or full length) fused with Gal4 Luc reporter; 18 hours at 37° C.; luminescence
Method in brief: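 Jurkat cells expressing Gal4 Luc with either RORgT LBD (aa267-516) or full-length human RORgT, 10,000 cells/well, treated with compound (40 µM to 0.67 nM final, 3-fold dilutions) for 18 h at 37° C. Steady-Glo luminescence read; inhibition of constitutive activity as % signal-window reduction relative to a control compound.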

| Structure (SMILES) | EC50 [nM] |
| --- | --- |
| NC(=O)CN1CC[C@@]2(S(=O)(=O)c3ccccc3)c3ccc(OCc4c(Cl)cccc4Cl)cc3CC[C@@H]12 [Example 70, 2-[(3aR,9bR)-9b-(benzenesulfonyl)-7-[(2,6-dichlorophenyl)methoxy]-1H,2H,3H,3aH,4H,5H,9bH-benzo[e]indol-3-yl]acetamide] | 153 |
| O=C1CCCN1CCN1CC[C@@]2(S(=O)(=O)c3ccccc3)c3ccc(OCc4c(Cl)cccc4Cl)cc3CC[C@@H]12 [Example 71, 1-{2-[(3aR,9bR)-9b-(benzenesulfonyl)-7-[(2,6-dichlorophenyl)methoxy]-1H,2H,3H,3aH,4H,5H,9bH-benzo[e]indol-3-yl]ethyl}pyrrolidin-2-one] | 667 |
| CC(C)(O)C(=O)N1CC[C@@]2(S(=O)(=O)c3ccccc3)c3ccc(OCc4c(Cl)cccc4Cl)cc3CC[C@@H]12 [Example 72, 1-[(3aR,9bR)-9b-(benzenesulfonyl)-7-[(2,6-dichlorophenyl)methoxy]-1H,2H,3H,3aH,4H,5H,9bH-benzo[e]indol-3-yl]-2-hydroxy-2-methylpropan-1-one] | 199 |
| CCOC(=O)CNC(=O)N1CC[C@@]2(S(=O)(=O)c3ccccc3)c3ccc(OCc4c(Cl)cccc4Cl)cc3CC[C@@H]12 [Example 73, ethyl 2-{[(3aR,9bR)-9b-(benzenesulfonyl)-7-[(2,6-dichlorophenyl)methoxy]-1H,2H,3H,3aH,4H,5H,9bH-benzo[e]indole-3-carbonyl]amino}acetate] | 314 |
| O=C(CN1CCS(=O)(=O)CC1)N1CC[C@@]2(S(=O)(=O)c3ccccc3)c3ccc(OCc4c(Cl)cccc4Cl)cc3CC[C@@H]12 [Example 74, 4-{2-[(3aR,9bR)-9b-(benzenesulfonyl)-7-[(2,6-dichlorophenyl)methoxy]-1H,2H,3H,3aH,4H,5H,9bH-benzo[e]indol-3-yl]-2-oxoethyl}-1λ^6-thiomorpholine-1,1-dione] | 14 |
| O=C1CCCN1CCC(=O)N1CC[C@@]2(S(=O)(=O)c3ccccc3)c3ccc(OCc4c(Cl)cccc4Cl)cc3CC[C@@H]12 [Example 76, 1-{3-[(3aR,9bR)-9b-(benzenesulfonyl)-7-[(2,6-dichlorophenyl)methoxy]-1H,2H,3H,3aH,4H,5H,9bH-benzo[e]indol-3-yl]-3-oxopropyl}pyrrolidin-2-one] | 957 |
| CN1CC(C(=O)N2CC[C@@]3(S(=O)(=O)c4ccccc4)c4ccc(OCc5c(Cl)cccc5Cl)cc4CC[C@@H]23)CC1=O (stereo partly drawn) [Example 77, 4-[(3aR,9bR)-9b-(benzenesulfonyl)-7-[(2,6-dichlorophenyl)methoxy]-1H,2H,3H,3aH,4H,5H,9bH-benzo[e]indole-3-carbonyl]-1-methylpyrrolidin-2-one] | 19 |
| NC(=O)N1CCC(C(=O)N2CC[C@@]3(S(=O)(=O)c4ccccc4)c4ccc(OCc5ccccc5)cc4CC[C@@H]23)CC1 [Example 78, 4-[(3aR,9bR)-9b-(benzenesulfonyl)-7-(benzyloxy)-1H,2H,3H,3aH,4H,5H,9bH-benzo[e]indole-3-carbonyl]piperidine-1-carboxamide] | 140 |
| CC1(O)CN(C(=O)N2CC[C@@]3(S(=O)(=O)c4ccccc4)c4ccc(OCc5c(Cl)cccc5Cl)cc4CC[C@@H]23)C1 [Example 83, 1-[(3aR,9bR)-9b-(benzenesulfonyl)-7-[(2,6-dichlorophenyl)methoxy]-1H,2H,3H,3aH,4H,5H,9bH-benzo[e]indole-3-carbonyl]-3-methylazetidin-3-ol] | 353 |
| CS(=O)(=O)N1CC(NC(=O)N2CC[C@@]3(S(=O)(=O)c4ccccc4)c4ccc(OCc5c(Cl)cccc5Cl)cc4CC[C@@H]23)C1 [Example 85, (3aR,9bR)-9b-(benzenesulfonyl)-7-[(2,6-dichlorophenyl)methoxy]-N-(1-methanesulfonylazetidin-3-yl)-1H,2H,3H,3aH,4H,5H,9bH-benzo[e]indole-3-carboxamide] | 18 |
| CC(C)(O)CCNC(=O)N1CC[C@@]2(S(=O)(=O)c3ccccc3)c3ccc(OCc4c(Cl)cccc4Cl)cc3CC[C@@H]12 [Example 86, (3aR,9bR)-9b-(benzenesulfonyl)-7-[(2,6-dichlorophenyl)methoxy]-N-(3-hydroxy-3-methylbutyl)-1H,2H,3H,3aH,4H,5H,9bH-benzo[e]indole-3-carboxamide] | 159 |
| O=C(N1CC(O)C1)N1CC[C@@]2(S(=O)(=O)c3ccccc3)c3ccc(OCc4c(Cl)cccc4Cl)cc3CC[C@@H]12 [Example 88, 1-[(3aR,9bR)-9b-(benzenesulfonyl)-7-[(2,6-dichlorophenyl)methoxy]-1H,2H,3H,3aH,4H,5H,9bH-benzo[e]indole-3-carbonyl] azetidin-3-ol] | 301 |

Further compounds by falling EC50, results first:

| EC50 [nM] | Structure (SMILES) |
| --- | --- |
| 212 | CS(=O)(=O)N1CC[C@@]2(S(=O)(=O)c3ccccc3)c3ccc(OCc4c(Cl)cccc4Cl)cc3CC[C@@H]12 [Example 75, (3aR,9bR)-9b-(benzenesulfonyl)-7-[(2,6-dichlorophenyl)methoxy]-3-methanesulfonyl-1H,2H,3H,3aH,4H,5H,9bH-benzo[e]indole] |
| 210 | O=C1CCCN1CC(=O)N1CC[C@@]2(S(=O)(=O)c3ccccc3)c3ccc(OCc4c(Cl)cccc4Cl)cc3CC[C@@H]12 [Example 79, 1-{2-[(3aR,9bR)-9b-(benzenesulfonyl)-7-[(2,6-dichlorophenyl)methoxy]-1H,2H,3H,3aH,4H,5H,9bH-benzo[e]indol-3-yl]-2-oxoethyl}pyrrolidin-2-one] |
| 102 | O=C(N1CCOCC1)N1CC[C@@]2(S(=O)(=O)c3ccccc3)c3ccc(OCc4c(Cl)cccc4Cl)cc3CC[C@@H]12 [Example 80, 4-[(3aR,9bR)-9b-(benzenesulfonyl)-7-[(2,6-dichlorophenyl)methoxy]-1H,2H,3H,3aH,4H,5H,9bH-benzo[e]indole-3-carbonyl]morpholine] |
| 97 | CS(=O)(=O)C1CCN(C(=O)N2CC[C@@]3(S(=O)(=O)c4ccccc4)c4ccc(OCc5c(Cl)cccc5Cl)cc4CC[C@@H]23)CC1 [Example 82, 1-[(3aR,9bR)-9b-(benzenesulfonyl)-7-[(2,6-dichlorophenyl)methoxy]-1H,2H,3H,3aH,4H,5H,9bH-benzo[e]indole-3-carbonyl]-4-methanesulfonylpiperidine] |
| 39 | O=C(Nc1ccncc1)N1CC[C@@]2(S(=O)(=O)c3ccccc3)c3ccc(OCc4c(Cl)cccc4Cl)cc3CC[C@@H]12 [Example 87, (3aR,9bR)-9b-(benzenesulfonyl)-7-[(2,6-dichlorophenyl)methoxy]-N-(pyridin-4-yl)-1H,2H,3H,3aH,4H,5H,9bH-benzo[e]indole-3-carboxamide] |
| 25 | O=C(O)C12CCC(C(=O)N3CC[C@@]4(S(=O)(=O)c5ccccc5)c5ccc(OCc6c(Cl)cccc6Cl)cc5CC[C@@H]34)(CC1)CC2 [Example 81, 4-[(3aR,9bR)-9b-(benzenesulfonyl)-7-[(2,6-dichlorophenyl)methoxy]-1H,2H,3H,3aH,4H,5H,9bH-benzo[e]indole-3-carbonyl]bicyclo[2.2.2]octane-1-carboxylic acid] |
| 15 | O=C(N1CCS(=O)(=O)CC1)N1CC[C@@]2(S(=O)(=O)c3ccccc3)c3ccc(OCc4c(Cl)cccc4Cl)cc3CC[C@@H]12 [Example 84, 4-[(3aR,9bR)-9b-(benzenesulfonyl)-7-[(2,6-dichlorophenyl)methoxy]-1H,2H,3H,3aH,4H,5H,9bH-benzo[e]indole-3-carbonyl]-1λ^6-thiomorpholine-1,1-dione] |
